For series [1], the system named is rats. Conditions: os, literature values; cited from earlier work.
The test system of series [2] is rice. The settings on record: Belgian Pat. No. 728,265; cited from earlier work.
In series [3] the test system is rice. The series can be described thus: Outdoor comparison of rice stimulating action of M3432 with lower homologues and isomers (Example 11). The series is classed as in vivo. The settings on record: 21 days after sowing. How it is done: In the province of Pavia, a test was carried out with outdoor treatments in a loam soil, on rice plots having a 12 m^2 surface each.
Formulations of 20% M3432 in emulsifiable oil were compared with 20% formulations in emulsifiable oil of S-benzyl-N,N-diisopropyl thiocarbamate; S-benzyl-N,N-diisobutylthiocarbamate; and S-benzyl-N,N-din.butylthiocarbamate employing quantities of 4, 6 and 20 kg./ha.
For each treatment, the results were gathered on 20 plants 21 days after the sowing.

Series [4] concerns mice. The settings on record: os, literature values; cited from earlier work.

`O=[N+]([O-])c1ccc(Oc2ccc(Cl)cc2Cl)cc1` [Nitrofen, 2,4-dichlorophenyl-4'-nitrophenylether]: the “Acute toxicity LD50” value in series [1] is 3000 mg/kg.
Take `Oc1c(Cl)c(Cl)c(Cl)c(Cl)c1Cl` [Pentachlorophenol]: the “Acute toxicity LD50” value in series [1] was 78 to 280 mg/kg.
Turning to `CCC(=O)Nc1ccc(Cl)c(Cl)c1` [Propanil, N(3,4-dichlorophenyl)-propionamide], in series [1], the “Acute toxicity LD50” value was 1384 mg/kg.
Regarding `CCN(CC)C(=O)SCc1ccccc1` [S-benzyl-N,N-diethylthiocarbamate], the “Aggressiveness towards rice compared with ring-substituted monothiocarbamates” value in series [2] is listed as “more aggressive towards the rice”.
In series [3] (4 kg./ha.), `CC(C)CN(CC(C)C)C(=O)SCc1ccccc1` [S-benzyl-N,N-diisobutylthiocarbamate] had a Main roots of 3.21 No, a Secondary roots of 1.68 No and a Shoot of 5.25 cm. In series [3] (6 kg./ha.), the Main roots is reported as 2.76 No, the Secondary roots is on record as 1.57 No and the Shoot was determined as 4.21 cm. In addition, in series [3] (20 kg./ha.), the Main roots turned out to be 2.59 No, the Secondary roots is on record as 1.52 No and the Shoot was 3.96 cm.
For `CC(C)N(C(=O)SCc1ccccc1)C(C)C` [S-benzyl-N,N-diisopropylthiocarbamate, S-benzyl-N,N-diisopropyl thiocarbamate], in series [3] (4 kg./ha.), the Main roots was 3.45 No, the Secondary roots worked out at 2.52 No and the Shoot was 5.36 cm. Besides, in series [3] (6 kg./ha.), the Main roots is 3.67 No, the Secondary roots came to 1.63 No and the Shoot came to 5.44 cm. Moreover, in series [3] (20 kg./ha.), the Main roots was determined as 2.79 No, the Secondary roots is given as 1.21 No and the Shoot was found to be 4.03 cm.
As for `CCCCN(CCCC)C(=O)SCc1ccccc1` [S-benzyl-N,N-din.butyl-thiocarbamate, S-benzyl-N,N-din.butylthiocarbamate], the Main roots in series [3] (4 kg./ha.) came out at 3.26 No; in series [3] (6 kg./ha.) it was 2.81 No; in series [3] (20 kg./ha.), 1.94 No. Moreover, the Secondary roots in series [3] (4 kg./ha.) is listed as 1.78 No; in series [3] (6 kg./ha.) it was 1.94 No; in series [3] (20 kg./ha.), 2.05 No. In addition, the Shoot was determined as 4.76 cm in series [3] (4 kg./ha.), 5.24 cm in series [3] (6 kg./ha.) and 2.34 cm in series [3] (20 kg./ha.).
As to `CCN(CC)C(=O)SCc1ccc(Cl)cc1` [Saturn, S(4-chlorobenzyl)N,N-diethylthiocarbamate], the “Acute toxicity LD50” value in series [4] was 560 mg/kg.
For `COC(=O)Nc1ccc(Cl)c(Cl)c1` [Swep, methyl-N-(3,4-dichlorophenyl)carbamate], the “Acute toxicity LD50” value in series [1] was 552 mg/kg.

The values above are taken from patent US3930838A, “S-benzyl-N,N-disec-butylthiocarbamate and its use as a rice field herbicide and a rice growth stimulant” (priority 1970, dated 1976).
